This note sets out measurements from US20210363254A1, “PHARMACEUTICAL COMBINATIONS” (Novartis AG, priority 2018, published 2021).

This experiment deals with immune cells in Colon 26 tumors. Briefly: Immune profiling of Colon 26 tumors and draining lymph nodes by flow cytometry (7628 and 8063 Colon 26-XPD). It is filed as in vivo, mouse. As to conditions: 40 mg/kg every 3h for 3 times on days 0 and 7. On the procedure:
HDM201 modulated profiles of immune cells in Colon 26 tumors. Increases in % CD11c^+/CD45^+ myeloid cells (A), % CD8^+/CD45^+ T cells (B), PDL1 MFI in CD45^− cells (C), and % PD1^+/CD45^+ lymphocytes (d). Colon 26 cells were implanted into the right flank of Balb/c mice. When tumors reached ˜60 mm^3, mice were randomized and treated with HDM201 at 40 mg/kg every 3h for 3 times on days 0 and 7. Mice were euthanized, and tumors were collected and processed for FACS analysis on Days 5 and 12 post first dose.
HDM201 modulated profiles of immune cells in Colon 26 tumors. Increases in % CD103^+CD11c^+ DCs (A), % Tbet*EOMES-CD8+/CD45^+ T cells (B), and CD8/Treg ratio (C). Colon 26 Cells were implanted into right flank of Balb/c mice. When tumors reached ˜100 mm^3, mice were randomized and treated with HDM201 at 40 mg/kg every 3h for 3 times on days 0 and 7. Mice were euthanized; tumors and draining lymph nodes were collected and processed for FACS analysis on Days 5 and 12 post first dose.
Colon 26 cells were harvested at 80-95% confluence, washed, and re-suspended in cold PBS at a concentration of 2×10^6 cells/ml. Finally, 0.2×10^6 cells in a total volume of 100 μL were implanted subcutaneously (sc) into the upper right flank of naive Balb/c mice.
The tumor infiltrating lymphocytes (TILs) from tumors were analyzed by flow cytometry for both studies ([…] Colon 26-XPD and 8063 Colon 26-XPD). Lymph node lymphocytes were analyzed for 8063 Colon 26-XPD. The samples were plated into two separate 96 well plates, one for T cell staining (Table Ex3.5) and one for myeloid cell staining (Table Ex3.6).
For Study 7628 Colon26-XPD, tumors and spleens were collected from mice on Day 5 and Day 12 post initiation of treatment. Single cell suspensions were generated according to RDS-2016-00163. Briefly, the tissues were minced with scissors followed by mechanical homogenization in dissociation buffer containing RPMI 1640 (Gibco, Life Technologies) with Liberase™ research grade collagenase (Roche) and DNase 1 recombinase (Roche) using the GentleMAX (Miltenyi). Following a 15 minute incubation at 37° C. in a water bath, the homogenates were quenched with 10% FBS and filtered on a […] cell strainer (Falcon). At the end of this process, the single cell suspension of cells was obtained and 2 million cells were plated into 96-well plates for staining with either a T cell or myeloid cell panel of antibodies.
For Study 8063 Colon 26-XPD, tumors and lymph nodes were collected and then processed both mechanically and enzymatically into a single cell suspension according to RDS-2017-00141. The digestion process involves 4-5 consecutive digestion cycles with new digestion buffer containing DNase I (Roche), Collagenase P (Roche), and dispase (Gibco) in each cycle. At the end of this process, cell suspension was filtered on a […] cell strainer to obtain single cell suspension. Two million cells were plated into 96 well plates for staining of T cell panel or myeloid cell panel antibodies.
Following this, the samples were blocked with a 1:50 dilution of mouse Fc block (Miltenyi Biotec) for 30 minutes on ice. The samples were spun for 5 minutes at 1500 rpm and then stained with a fluorochrome-conjugated surface antibody mix as shown in Table Ex3.5 and Ex3.6 for 60 minutes. During the blocking and staining procedures, cells were maintained at 4° C. and protected from light.
For intracellular staining of T cells, after surface staining, the plates were spun again for 5 minutes at 1500 rpm, and then the cells were fixed and permeabilized overnight using a fix/perm kit (eBioscience). The cells were washed with a permeabilization buffer and then stained with the intracellular antibodies for 1 hour at 4° C. in the dark. The plates were washed twice in permeabilization buffer and suspended in 200 μl PBS. Data acquisition was performed using the LSRFortessa™ (BD Biosciences).
Analysis was performed after each run using FLOWJO v10.0.7 software from Treestar. […]
(In general: In flow cytometry, cells or beads pass a laser one at a time.)

As to `COc1ncc(-c2nc3c(n2C(C)C)[C@H](c2ccc(Cl)cc2)N(c2cc(Cl)cn(C)c2=O)C3=O)c(OC)n1` [HDM201, (S)-5-(5-Chloro-1-methyl-2-oxo-1,2-dihydro-pyridin-3-yl)-6-(4-chloro-phenyl)-2-(2,4-dimethoxy-pyrimidin-5-yl)-1-isopropyl-5,6-dihydro-1H-pyrrolo[3,4-d]imidazol-4-one], the “% CD103+CD11+ DCs” value was “increased”, the “% PD1+CD45+ cells” value is on record as “increased”, the CD8/Treg ratio entry is listed as “increased” and the “PDL1 expression (MFI) in CD45− cells” value is on record as “induced”. The “newly primed % Tbet+EOMES−CD8+/CD45+ T cells” value is “increased”. In addition, for the setting “Days 5 and 12”, the “% CD11C+CD45+ cells in tumors” value is “increased” and the “CD8 T cells in tumors” value is “increased”.
